Data reported in patent US20250235545A1, “POLYPEPTIDE CONJUGATE AND USE THEREOF” (SHANGHAI CHIXI BIOMEDICAL TECHNOLOGY CO., LTD, priority 2024, published 2025).
Values after ≈ are worked out from the molar mass of the structure shown. Like-named read-outs stand apart in the source and are kept apart here. Where a SMILES comes first, the peptide text is derived from it. The star is where a group is joined. NEt(2-(20S-CPT-7-yl)ethyl) = CCN(CCc1c2c(nc3ccccc13)-c1cc3c(c(=O)n1C2)COC(=O)[C@]3(O)CC)*; Belotecan = CC[C@@]1(O)C(=O)OCc2c1cc1n(c2=O)Cc2c-1nc1ccccc1c2CCN(C(C)C)*; Propanoyl(3-maleimido) = O=C1C=CC(=O)N1CCC(=O)*; PEG6 = NCCOCCOCCOCCOCCOCCOCCC(=O)O

Legend:
[1] = test system: sarcoma SJSA-1 tumor model; test: Efficacy in animal model of sarcoma SJSA-1, 30 mg/kg once a week for two weeks (Example 40); assay type: in vivo, BALB/c mice; conditions: 30 mg/kg once a week for two weeks
Protocol: Test objective: To further compare the antitumor efficacy of different polypeptide Linkers in an animal tumor model of sarcoma SJSA-1.
Test drug: Polypeptide conjugate and normal saline control group.
The control group was administered normal saline. Administration was performed once a week for two weeks.

[2] = Tumor homogenate activation efficiency, ovarian cancer tissue (Examples 28, 37); assay type: in vitro ADME; conditions: pH 5.0, 37° C., 2 h; Table 10
Procedure, shortened: (§1)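 Each conjugate, dissolved at 1 mg/ml in acidic MES saline (pH 5.0), was exposed to 100 μg homogenate for 2 h at 37° C; released Belotecan was quantified by HPLC peak areas.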

[3] = Homogenate activation efficiency, heart tissue (Examples 28, 37); assay type: in vitro ADME; conditions: pH 5.0, 37° C., 2 h; Table 10
[4] = Tumor homogenate activation efficiency, sarcoma tissue (Examples 28, 37); assay type: in vitro ADME; conditions: pH 5.0, 37° C., 2 h; Table 10
Procedure, shortened: as §1

[5] = test system: colo320 (colorectal cancer tissue); test: cells; assay type: cell-based; conditions: CCK8, 48 h; Table 6
Procedure, shortened: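 Colo320 cells, 5,000 per well, exposed to drug concentration series for 48 h at 37 °C, 5% CO2 (0.1% DMSO controls). Viability by CCK8, absorbance at 450 nm after about 2 h. Survival rates and IC50 calculated.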

[6] = Tumor homogenate activation efficiency, colorectal cancer tissue (Example 37); assay type: in vitro ADME; conditions: pH 5.0, 37° C., 2 h; Table 10
Protocol: Buffer preparation: 50 mM PH buffer (MES), 250 mM NaCl, pH adjusted to 5.0 with 0.5 M of sodium hydroxide.
The polypeptide conjugate was prepared into a 1 mg/ml solution with pH 5.0 buffer, 100 μg of tumor tissue homogenate was added, (the tumor tissue homogenate was the homogenate of tumor tissues prepared with a Jingxin F6/10 handheld homogenizer), and the solution was placed at 37° C. for 2 h. The tumor tissue homogenate could effectively activate the polypeptide conjugate and release Belotecan, and the activation efficiencies of the drugs in tumor tissues were compared by HPLC allowing determination of a decrease in the compounds and an increase in Belotecan:
Release percentage=peak area of Belotecan/total peak area of Belotecan and all other Belotecan-containing compounds

[7] = Tumor homogenate activation efficiency, non-small cell lung cancer tissue (Examples 28, 37); assay type: in vitro ADME; conditions: pH 5.0, 37° C., 2 h; Table 10
Procedure, shortened: as §1

[8] = test system: colo320 colorectal cancer tumor model
Procedure, shortened: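 Dosing was once a week for four weeks, with saline as control, in randomized groups of three mice. Groups were formed after subcutaneous colo320 xenografts (7.5×10^6 cells, right chest) grew to ≥120 mm^3 in female 6–8-week-old BALB/c nude mice.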

[9] = test system: sarcoma SJSA-1 tumor model; conditions: Table 7
Procedure, shortened: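 Female BALB/c nude mice (6-8 weeks) bearing subcutaneous right-chest SJSA-1 xenografts from 2×10^7 cells were randomized, three per group, once tumors reached at least 100 mm^3. Treatment given once a week for three weeks starting day 1; saline controls.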

[10] = Tumor homogenate activation efficiency, breast cancer tissue (Examples 28, 37); assay type: in vitro ADME; conditions: pH 5.0, 37° C., 2 h; Table 10
Procedure, shortened: as §1

[11] = test system: SJSA-1 (sarcoma tissue); test: cells; assay type: cell-based; conditions: CCK8, 48 h; Table 6
Procedure, shortened: (§2)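 CCK8 absorbance at 450 nm, read after roughly 2 h of staining, gave cell survival rates from which IC50 values were derived. Beforehand, 5,000 cells/well were exposed for 48 h at 37° C to serial drug dilutions (triplicate wells; 0.1% DMSO vehicle control; cell-free blanks).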

[12] = test system: A549 (non-small cell lung cancer); test: cells; assay type: cell-based; conditions: CCK8, 48 h; Table 6
Procedure, shortened: as §2

[13] = test system: SKBR3 (breast cancer tissue); test: cells; assay type: cell-based; conditions: CCK8, 48 h; Table 6
Procedure, shortened: as §2

[14] = test system: A2780 (ovarian cancer); test: cells; assay type: cell-based; conditions: CCK8, 48 h; Table 6
Procedure, shortened: as §2

[15] = MTD determination in mice (Examples 27, 36, 44); assay type: in vivo; conditions: female, mouse, in vivo; mice, monitored for 14 d; Table 9
Excerpt: Test animals: 6-8 weeks old mice, all female; mice were grouped randomly, with six mice in each group, administered with drugs at different concentration gradients separately and monitored for 14 d. A mouse was euthanized at a loss of 20% of its initial weight and deemed to have died of poisoning.

[16] = 15 mg/kg once a week for four weeks, Table 8
[17] = 45 mg/kg once a week for four weeks, Table 8
[18] = Table 14 (Example 43), dose 45 mg/kg, once a week for four weeks, BALB/c mice
[19] = 15 mg/kg once a week for three weeks
[20] = 45 mg/kg once a week for three weeks
[21] = Table 13 (Example 42), dose 45 mg/kg, once a week for four weeks, BALB/c mice

| Structure (SMILES) | Mouse weight (%) on Day 14 ([1]; Day 14) | Percentage of release efficiency (%) Ovarian cancer tissue (A2780) [2] [%] | Percentage of release efficiency (%) Heart tissue [3] [%] | Percentage of release efficiency (%) Sarcoma tissue (SJSA1) [4] [%] | IC50 Colorectal cancer tissue (colo320) [5] [µg/mL] | Percentage of release efficiency (%) Colorectal cancer tissue (colo320) [6] [%] | Percentage of release efficiency (%) Non-small cell lung cancer tissue (A549) [7] [%] | Mouse weight (%) [8, 16] | Mouse weight (%) [8, 17] | Mouse weight (%) [8, 18] | Mouse weight (%) [9, 19] | Mouse weight (%) [9, 20] | Percentage of release efficiency (%) Breast cancer tissue (SKBR3) [10] [%] | IC50 Sarcoma tissue (SJSA-1) [11] [µg/mL] | IC50 Non-small cell lung cancer tissue (A549) [12] [µg/mL] | IC50 Breast cancer tissue (SKBR3) [13] [µg/mL] | IC50 Ovarian cancer tissue (A2780) [14] [µg/mL] | MTD at 14 d [15] [mg/kg] | colo320 (colorectal cancer cell) growth rate (%) [8, 17] [%] | colo320 (colorectal cancer cell) mean tumor volume (mm^3) [8, 17] [mm^3] | other results |
| --- | --- | --- | --- | --- | --- | --- | --- | --- | --- | --- | --- | --- | --- | --- | --- | --- | --- | --- | --- | --- | --- |
| CC[C@@]1(O)C(=O)OCc2c1cc1n(c2=O)Cc2c-1nc1ccccc1c2CCN(C(=O)[C@H](CC(C)C)NC(=O)[C@H](CC(N)=O)NC(=O)[C@H](C)NC(=O)[C@H](C)NC(=O)CCOCCOCCOCCOCCOCCOCCNC(=O)CCN1C(=O)C=CC1=O)C(C)C [MI-6PEG-AANL-Belotecan] ({Propanoyl(3-maleimido)-PEG6}-AANL-Belotecan) | −1.3% | 81.2 | 2.5 | 75.5 | 2.74 (≈ 2.12 µM) | 75.6 | 76.5 | +22% | +2% | +2% | +24% | +21% | 69.5 | 0.90 (≈ 0.698 µM) | 1.55 (≈ 1.2 µM) | 2.48 (≈ 1.92 µM) | 0.91 (≈ 0.706 µM) | 150 | – | – | – |
| CCN(CCc1c2c(nc3ccccc13)-c1cc3c(c(=O)n1C2)COC(=O)[C@]3(O)CC)C(=O)[C@H](CC(C)C)NC(=O)[C@H](CC(N)=O)NC(=O)[C@H](C)NC(=O)[C@H](C)NC(=O)CCOCCOCCOCCOCCOCCOCCNC(=O)CCN1C(=O)C=CC1=O [MI-6PEG-AANL-D2] ({Propanoyl(3-maleimido)-PEG6}-AANL-{NEt(2-(20S-CPT-7-yl)ethyl)}) | +1.9% | 71.3 | 0.9 | 67.1 | 4.65 (≈ 3.65 µM) | 65 | 73.6 | – | +19% | +19% | +41% | +24% | 73.5 | 1.58 (≈ 1.24 µM) | 2.57 (≈ 2.02 µM) | 3.28 (≈ 2.57 µM) | 1.31 (≈ 1.03 µM) | 200 | 760.87 | 894.4 | SJSA-1 (sarcoma tissue) mean tumor volume (mm^3) Day 1 ([1]; Day 1): 136.59 mm^3; SJSA-1 (sarcoma tissue) mean tumor volume (mm^3) Day 4 ([1]; Day 4): 465.17 mm^3; SJSA-1 (sarcoma tissue) mean tumor volume (mm^3) Day 7 ([1]; Day 7): 891.36 mm^3; SJSA-1 (sarcoma tissue) mean tumor volume (mm^3) Day 10 ([1]; Day 10): 1320.55 mm^3; SJSA-1 (sarcoma tissue) growth rate (%) on Day 14 ([1]; Day 14): 1623.94%; SJSA-1 (sarcoma tissue) mean tumor volume (mm^3) Day 14 ([1]; Day 14): 2218.14 mm^3; colo320 (colorectal cancer cell) growth rate (%) [8, 18]: 760.87%; colo320 (colorectal cancer cell) mean tumor volume (mm^3) [8, 18]: 894.4 mm^3; SJSA-1 (sarcoma tissue) growth rate (%) [9, 19]: 1316.56%; SJSA-1 (sarcoma tissue) mean tumor volume (mm^3) [9, 19]: 1645.7 mm^3; SJSA-1 (sarcoma tissue) growth rate (%) [9, 20]: 964.08%; SJSA-1 (sarcoma tissue) mean tumor volume (mm^3) [9, 20]: 1213.3 mm^3 |
| CC[C@@]1(O)C(=O)OCc2c1cc1n(c2=O)Cc2c-1nc1ccccc1c2CCN(C(=O)[C@H](CC(C)C)NC(=O)[C@H](Cc1ccccc1)NC(=O)CNC(=O)CNC(=O)CCOCCOCCOCCOCCOCCOCCNC(=O)CCN1C(=O)C=CC1=O)C(C)C [MI-6PEG-GGFL-Belotecan] ({Propanoyl(3-maleimido)-PEG6}-GGFL-Belotecan) | – | 73.6 | 1.8 | 68 | 2.86 (≈ 2.21 µM) | 83.1 | 77.3 | +27% | +5% | +5% | +27% | +22% | 73.2 | 1.24 (≈ 0.958 µM) | 2.21 (≈ 1.71 µM) | 3.69 (≈ 2.85 µM) | 1.91 (≈ 1.48 µM) | 100 | 671.56 | 789.4 | colo320 (colorectal cancer cell) growth rate (%) [8, 16]: 994.05%; colo320 (colorectal cancer cell) mean tumor volume (mm^3) [8, 16]: 1254.2 mm^3; Mouse weight (%) [8, 21]: +5%; colo320 (colorectal cancer cell) growth rate (%) [8, 21]: 671.56%; colo320 (colorectal cancer cell) mean tumor volume (mm^3) [8, 21]: 789.4 mm^3; colo320 (colorectal cancer cell) growth rate (%) [8, 18]: 671.56%; colo320 (colorectal cancer cell) mean tumor volume (mm^3) [8, 18]: 789.4 mm^3; SJSA-1 (sarcoma tissue) growth rate (%) [9, 19]: 1134.95%; SJSA-1 (sarcoma tissue) mean tumor volume (mm^3) [9, 19]: 1278.6 mm^3; SJSA-1 (sarcoma tissue) growth rate (%) [9, 20]: 995.32%; SJSA-1 (sarcoma tissue) mean tumor volume (mm^3) [9, 20]: 1254.1 mm^3 |
